Measured values published in publication PMC3953453 (Molecular pharmaceutics, 2012).
Read-outs that look alike come from different tables or passages of the source.

Key:
[1] = test system: perfused rat intestine (duodenum, upper jejunum, terminal ileum and colon); assay: four-site perfused rat intestinal model; assay type: in vivo; conditions: for effect of co-perfusion on absorption and metabolism of wogonoside: 0.1 mM saccharolactone, 20 mM gluconolactone, or antibiotics (100 units penicillin and 0.1mg streptomycin/mL)
[2] = test system: β-glucuronidase in intestinal perfusate; assay: biological stability in blank intestinal perfusate; conditions: for effect on hydrolysis of wogonoside in blank intestinal perfusate: wogonoside 20 μM, 0.1 or 4.4 mM saccharolactone, 20 mM gluconolactone
[3] = test system: β-glucuronidase in the rat intestine perfusates; assay: hydrolysis of wogonoside in blank rat intestinal perfusate; assay type: in vitro ADME; conditions: for Vmax of wogonoside hydrolysis / Km: blank perfusate; for Km: read-out: Km of wogonoside hydrolysis
[4] = chemical stability of wogonoside; assay type: physicochemical
[5] = molecular target: T1, β-glucuronidase derived from intestinal S9 fraction (Rattus norvegicus, UniProt P06760); assay: hydrolysis of wogonoside by rat intestine S9 fractions; assay type: in vitro ADME; conditions: for Km: read-out: Km of wogonoside hydrolysis
T1 sequence (P06760 23-648): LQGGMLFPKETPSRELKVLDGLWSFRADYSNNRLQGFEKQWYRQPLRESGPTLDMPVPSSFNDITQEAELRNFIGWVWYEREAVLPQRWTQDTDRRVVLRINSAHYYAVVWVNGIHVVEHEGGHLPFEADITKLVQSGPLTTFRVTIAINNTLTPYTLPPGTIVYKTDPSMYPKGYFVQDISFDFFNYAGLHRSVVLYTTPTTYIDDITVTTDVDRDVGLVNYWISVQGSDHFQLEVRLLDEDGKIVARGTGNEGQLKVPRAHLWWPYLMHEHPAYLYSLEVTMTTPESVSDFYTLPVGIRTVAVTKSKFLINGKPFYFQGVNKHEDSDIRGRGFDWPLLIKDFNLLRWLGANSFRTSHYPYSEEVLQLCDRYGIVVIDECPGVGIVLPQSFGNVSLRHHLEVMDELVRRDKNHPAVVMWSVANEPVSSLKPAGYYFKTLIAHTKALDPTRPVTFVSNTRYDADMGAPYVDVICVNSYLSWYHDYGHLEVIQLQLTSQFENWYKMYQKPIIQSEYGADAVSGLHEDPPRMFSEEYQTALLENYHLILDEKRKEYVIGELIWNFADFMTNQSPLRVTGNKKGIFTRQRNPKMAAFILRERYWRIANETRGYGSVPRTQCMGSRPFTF

[6] = stability in diluted bile solution; assay type: in vitro ADME, rat; conditions: 20 μM, 4-fold diluted bile solution, 37°C
[7] = test system: β-glucuronidase of microbial enzymatic extract (rat feces); assay: hydrolysis of wogonoside by microbial enzymatic extract from rat feces; assay type: in vitro ADME
[8] = cited from earlier work

In the case of `COc1c(O[C@@H]2O[C@H](C(=O)O)[C@@H](O)[C@H](O)[C@H]2O)cc(O)c2c(=O)cc(-c3ccccc3)oc12` [wogonoside, wogonin-7-O-glucuronide], the “metabolite found in perfusate (interconversion)” value ([1]; 5 μM and 20 μM perfused) was “significant amounts of wogonin were recovered in the wogonoside perfusate”, the intestinal absorption ([1]; 5 μM and 20 μM, four segments) was “slower in every intestine regions when compared to wogonin” and the “stability in blank intestinal perfusate” value ([2]; blank perfusate of duodenum, jejunum, ileum, colon, 37°C, up to 8 h) was “unstable”. The “stability in blank intestinal perfusate after removal of bacteria” value ([2]; centrifugation (13,000 rpm, 30 min) and aseptic filtration, 20 μM) was “did not improve stability of wogonoside”, the maximal hydrolysis rate ([3]; blank jejunal perfusate, pH 4.5, wogonoside 20μM) was 1.559 ± 0.008 nmol/min/mg and the “Vmax of wogonoside hydrolysis” value ([3]; Col 60-90min) was 0.15 nmol/min/mg. The “Vmax of wogonoside hydrolysis” value ([3]; Duo 60-90min) was 0.15 nmol/min/mg, the “Vmax of wogonoside hydrolysis” value ([3]; Ile 60-90min) was 0.85 nmol/min/mg and the “Vmax of wogonoside hydrolysis” value ([3]; Ile 120-150min) was 0.30 nmol/min/mg. For the same compound, the “Vmax of wogonoside hydrolysis” value ([3]; Jej 0-30min) was 1.84 nmol/min/mg, the “Vmax of wogonoside hydrolysis” value ([3]; Jej 30-60min) was 0.93 nmol/min/mg and the “Vmax of wogonoside hydrolysis” value ([3]; Jej 60-90min) was 0.47 nmol/min/mg. For the same compound, the “Vmax of wogonoside hydrolysis” value ([3]; Jej 90-120min) was 0.37 nmol/min/mg, the “Vmax of wogonoside hydrolysis” value ([3]; Jej 120-150min) was 0.18 nmol/min/mg and the Km ([3]; Col 60-90min) was 19.7 µM. For the same compound, the Km ([3]; Duo 60-90min) was 19.9 µM, the Km ([3]; Ile 60-90min) was 6.33 µM and the Km ([3]; Ile 120-150min) was 6.96 µM. The Km ([3]; Jej 0-30min) was 19.8 µM, the Km ([3]; Jej 30-60min) was 15.8 µM and the Km ([3]; Jej 60-90min) was 18.7 µM. The Km ([3]; Jej 90-120min) was 17 µM, the Km ([3]; Jej 120-150min) was 25.5 µM and the chemical stability ([4]; pH 5.5, pH 6.5 and pH 7.4, 37°C) was “chemically stable”. For the same compound, the “recovery (chemical stability)” value ([4]; pH 5.5, pH 6.5 and pH 7.4, 8 h incubation at 37°C) was 104%-106%, the “Vmax of wogonoside hydrolysis” value ([5]; Duo S9 fraction) was 2.06 nmol/min/mg and the “Vmax of wogonoside hydrolysis” value ([5]; Ile S9 fraction) was 0.26 nmol/min/mg. For the same compound, the “Vmax of wogonoside hydrolysis” value ([5]; Jeu S9 fraction) was 1.68 nmol/min/mg, the maximal hydrolysis rate ([5]; jejunal S9 fraction, pH 4.5, wogonoside 20μM) was 5.195 ± 0.103 nmol/min/mg and the “optimal pH of glucuronidase activity” value ([5]; jejunal S9 fraction, wogonoside 20μM, 37°C, 30 min) was 4.5. For the same compound, the Km ([5]; Duo S9 fraction) was 30 µM, the Km ([5]; Ile S9 fraction) was 25.7 µM and the Km ([5]; Jeu S9 fraction) was 28.2 µM. For the same compound, the stability in bile [6] was “fairly stable”, the “Vmax of wogonoside hydrolysis” value ([7]; Microflora enzymatic extract) was 49.64 nmol/min/mg and the highest hydrolysis rate ([7]; fecal extract, pH 5.5, wogonoside 20μM) was 249.211 ± 0.178 nmol/min/mg. It also gave a Km ([7]; read-out: Km of wogonoside hydrolysis, Microflora enzymatic extract) of 7.7 µM.
For `O=C(O)[C@@H](O)[C@H]1OC(=O)[C@H](O)[C@H]1O` [saccharolactone], the “effect of co-perfusion on absorption and metabolism of wogonoside” value [1] was “affected both absorption and metabolism of wogonoside”, the “effect of co-perfusion on absorption and metabolism of wogonin” value ([1]; co-perfused with 0.1 mM saccharolactone) was “did not affect the absorption or metabolism of wogonin” and the “effect on hydrolysis of wogonoside in blank intestinal perfusate” value [2] was “inhibit the hydrolysis of wogonoside in all perfusate”.
For `O=C1O[C@H](CO)[C@@H](O)[C@H](O)[C@H]1O` [gluconolactone, reference compound], the “effect of co-perfusion on absorption and metabolism of wogonoside” value [1] was “did not affect its absorption” and the “effect on hydrolysis of wogonoside in blank intestinal perfusate” value [2] was “did not inhibit the hydrolysis of wogonoside”.
For `Oc1ccc(/C=C/c2cc(O)cc(O)c2)cc1` [resveratrol], the bioavailability [8] is listed as under 5%.
